From patent US6785989B2, “Methods and apparatus for removal of wrinkles from fabrics” (The Procter & Gamble Company, priority 2000, dated 2004)

Experiments:
[1] = cited from earlier work
[2] = Perfume component interaction with cyclodextrin (CD interaction); assay type: physicochemical; details: perfume component complexing with cyclodextrin
Source text: The following table illustrates the molecular weight property of some of the preferred perfume versus non-preferred perfume components.

Compound | solubility in water [1] | CD interaction [2]
OCCOc1ccccc1 [2-phenoxyethanol] | about 2.67% | 
OCCc1ccccc1 [2-phenylethanol] | about 2% | 
O=[N+]([O-])C1(Br)COCOC1 [Bronidox L, 5-bromo-5-nitro-1,3-dioxane] | about 0.46% | 
CC(C=O)Cc1ccc(C(C)C)cc1 (centres unmarked) [Cymal] |  | strong
CC1(C)C(=O)N(CO)C(=O)N1CO [DMDM hydantoin, 1,3-bis(hydroxymethyl)-5,5-dimethyl-2,4-imidazolidinedione] | more than 50% | 
CCOC(=O)c1ccccc1C(=O)OCC [Diethyl Phthalate] |  | weak
ClC=CC[N+]12CN3CN(CN(C3)C1)C2.[Cl-] [Dowicil 200, 1-(3-Chlorallyl)-3,5,7-triaza-1-azoniaadamantane chloride] | freely soluble | 
CC(=O)OC1CC2CC1C1CC=CC21 (centres unmarked) [Flor Acetate] |  | strong
CCC(=O)OC1CC2CC1C1CC=CC21 (centres unmarked) [Frutene] |  | strong
CC1COCc2cc3c(cc21)C(C)(C)C(C)C3(C)C (centres unmarked) [Galaxolide] |  | weak
CCCCCCOC(=O)c1ccccc1O [Hexyl Salicylate] |  | weak
CCCCCCC(C=O)=Cc1ccccc1 [Hexyl cinnamic Aldehyde] |  | weak
CC(=O)C1(C)CC2=C(CCCC2(C)C)CC1C (centres unmarked) [Iso-E Super] |  | weak
CCCCCCCCCCCCCC(=O)OC(C)C [Iso-propyl Myristate] |  | weak
CC(=O)C(C)=C(C)C(C)C(C)(C)C (centres unmarked) [Koavone] |  | strong
CC(C=O)Cc1ccc(C(C)(C)C)cc1 (centres unmarked) [Lilial, p-t-bucinal] |  | strong
CC(C)(O)CCCC1=CCC(C=O)CC1 (centres unmarked) [Lyral] |  | weak
CCCCCC1C(=O)CCC1CC(=O)OC (centres unmarked) [Methyl Dihydro Jasmonate] |  | weak
O=C(Cc1ccccc1)OCCc1ccccc1 [Phenyl-Ethyl-Phenyl Acetate] |  | weak
CC(=O)OC(C)(C)C1CC=C(C)CC1 (centres unmarked) [Terpinyl Acetate] |  | significant
CCC(C)(O)CCCC(C)C (centres unmarked) [Tetrahydrolinalol] |  | significant
CC(=O)OC1CCC(C(C)(C)C)CC1 (centres unmarked) [Vertenex, para-tert-butylcyclohexyl acetate] |  | strong
CC(=O)/C=C/C1C(C)=CCCC1(C)C (centres unmarked) [a-ionone] |  | strong
OCc1ccccc1 [benzyl alcohol] | about 4% | 
[H]/N=C(\N/C(=N/[H])NCCCCCCNC(=N)NC(=N)Nc1ccc(Cl)cc1)Nc1ccc(Cl)cc1 [chlorhexidine diacetate, 1,1′-hexamethylene bis(5-(p-chlorophenyl)biguanide), reference compound] | about 1.8% | 
[H]/N=C(\N/C(=N/[H])NCCCCCCNC(=N)NC(=N)Nc1ccc(Cl)cc1)Nc1ccc(Cl)cc1 [chlorhexidine digluconate, 1,1′-hexamethylene bis(5-(p-chlorophenyl)biguanide), reference compound] | about 70% | 
CC(C)(O)C(Cl)(Cl)Cl [chlorobutanol, 1,1,1-Trichloro-2-methylpropan-2-ol] | about 0.8% | 
[Na+].[O-][n+]1ccccc1[S-] [sodium pyrithione] | about 50% | 
a-Me Ionone |  | strong
